Measurements: patent US20250270213A1, “PI3Ka INHIBITORS” (Synnovation Therapeutics, Inc., priority 2022, published 2025)

Tested on: T47D (PIK3CA H1047R) cells
Test: pS473 AKT assay with 2.5% FBS, T47D cells
Assay type: cell-based
Details: Homo sapiens, pSer473 AKT, DMEM with 2.5% FBS, 2 h treatment, read-out: T47D_IC50
Method in brief: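 T47D (PIK3CA H1047R) cells were switched to DMEM with 2.5% FBS and exposed to compounds for 2 h. After paraformaldehyde fixation, pSer473 AKT was detected by in-cell ELISA (rabbit primary, HRP anti-rabbit secondary, chemiluminescence); IC50 values were fitted from the concentration series.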

IC50 [nM] | SMILES
< 1000 | Cc1cc(C(C)Nc2ccc(Cl)nc2-c2cnn(C)c2)c2c(c1)c(=O)n(C)c1c2cnn1CC1CCN(C(=O)N(C)C)CC1 (centres unmarked) [Compound 108, 4-((9-(1-((6-chloro-2-(1-methyl-1H-pyrazol-4-yl)pyridin-3-yl)amino)ethyl)-4,7-dimethyl-5-oxo-4,5-dihydro-3H-pyrazolo[3,4-c]isoquinolin-3-yl)methyl)-N,N-dimethylpiperidine-1-carboxamide]
< 1000 | CCNC(=O)N1CCC(Cn2ncc3c4c(C(C)Nc5ccc(Cl)nc5-c5ccncc5F)cc(C)cc4c(=O)n(C)c32)CC1 (centres unmarked) [Compound 109, 4-((9-(1-((6-Chloro-3′-fluoro-[2,4′-bipyridin]-3-yl)amino)ethyl)-4,7-dimethyl-5-oxo-4,5-dihydro-3H-pyrazolo[3,4-c]isoquinolin-3-yl)methyl)-N-ethylpiperidine-1-carboxamide]
< 1000 | Cc1cc(C(C)Nc2ccc(Cl)nc2-c2ccncc2F)c2c(c1)c(=O)n(C)c1c2cnn1CC1CCN(CC(F)F)C1 (centres unmarked) [Compound 110, 9-(1-((6-Chloro-3′-fluoro-[2,4′-bipyridin]-3-yl)amino)ethyl)-3-((1-(2,2-difluoroethyl)pyrrolidin-3-yl)methyl)-4,7-dimethyl-3,4-dihydro-5H-pyrazolo[3,4-c]isoquinolin-5-one]
< 1000 | Cc1cc(C(C)Nc2ccc(Cl)nc2-c2ncn(C)n2)c2c(c1)c(=O)n(C)c1c(C(C)O)ncn21 (centres unmarked) [Compound 111, 9-(1-((6-Chloro-2-(1-methyl-1H-1,2,4-triazol-3-yl)pyridin-3-yl)amino)ethyl)-3-(1-hydroxyethyl)-4,7-dimethylimidazo[1,5-a]quinazolin-5(4H)-one]
< 1000 | Cc1cc(C(C)Nc2ccc(Cl)nc2-c2ncn(C)n2)c2c(c1)c(=O)n(C)c1c(-c3cccnc3)ncn21 (centres unmarked) [Compound 112, 9-(1-((6-Chloro-2-(1-methyl-1H-1,2,4-triazol-3-yl)pyridin-3-yl)amino)ethyl)-4,7-dimethyl-3-(pyridin-3-yl) imidazo[1,5-a]quinazolin-5(4H)-one]
< 1000 | Cc1cc(C(C)Nc2ccc(Cl)nc2-c2ncn(C)n2)c2c(c1)c(=O)n(C)c1c(-c3cccnc3C)ncn21 (centres unmarked) [Compound 113, 9-(1-((6-chloro-2-(1-methyl-1H-1,2,4-triazol-3-yl)pyridin-3-yl)amino)ethyl)-4,7-dimethyl-3-(2-methylpyridin-3-yl)imidazo[1,5-a]quinazolin-5(4H)-one]
< 1000 | Cc1cc(C(C)Nc2ccc(Cl)nc2-c2ncn(C)n2)c2c(c1)c(=O)n(C)c1c(-c3cncnc3)ncn21 (centres unmarked) [Compound 114, 9-(1-((6-chloro-2-(1-methyl-1H-1,2,4-triazol-3-yl)pyridin-3-yl)amino)ethyl)-4,7-dimethyl-3-(pyrimidin-5-yl)imidazo[1,5-a]quinazolin-5(4H)-one]
< 1000 | Cc1cc(C(C)Nc2ccc(Cl)nc2-c2ncn(C)n2)c2c(c1)c(=O)n(C)c1c(-c3ccnc(C)c3)ncn21 (centres unmarked) [Compound 115, 9-(1-((6-chloro-2-(1-methyl-1H-1,2,4-triazol-3-yl)pyridin-3-yl)amino)ethyl)-4,7-dimethyl-3-(2-methylpyridin-4-yl)imidazo[1,5-a]quinazolin-5(4H)-one]
< 1000 | Cc1cc(C(C)Nc2ccc(Cl)nc2-c2cnn(C)c2)c2c(c1)c(=O)n(C)c1c(-c3cccnc3C)ncn21 (centres unmarked) [Compound 116, 9-(1-((6-Chloro-2-(1-methyl-1H-pyrazol-4-yl)pyridin-3-yl)amino)ethyl)-4,7-dimethyl-3-(2-methylpyridin-3-yl) imidazo[1,5-a]quinazolin-5(4H)-one]
< 1000 | Cc1cc(C(C)Nc2ccc(Cl)nc2-c2cnn(C)c2)c2c(c1)c(=O)n(C)c1c(-c3cncnc3)ncn21 (centres unmarked) [Compound 117, 9-(1-((6-chloro-2-(1-methyl-1H-pyrazol-4-yl)pyridin-3-yl)amino)ethyl)-4,7-dimethyl-3-(pyrimidin-5-yl)imidazo[1,5-a]quinazolin-5(4H)-one]
< 1000 | CNC(=O)c1cc(-c2ncn3c4c(C(C)Nc5ccc(Cl)nc5-c5cnn(C)c5)cc(C)cc4c(=O)n(C)c23)ccn1 (centres unmarked) [Compound 118, 4-(9-(1-((6-chloro-2-(1-methyl-1H-pyrazol-4-yl)pyridin-3-yl)amino)ethyl)-4,7-dimethyl-5-oxo-4,5-dihydroimidazo[1,5-a]quinazolin-3-yl)-N-methylpicolinamide]
< 1000 | Cc1cc(C(C)Nc2ccc(Cl)nc2-c2ncn(C)n2)c2c(c1)c(=O)n(C)c1c(C(=O)N(C)C)ncn21 (centres unmarked) [Compound 119, 9-(1-((6-Chloro-2-(1-methyl-1H-1,2,4-triazol-3-yl)pyridin-3-yl)amino)ethyl)-N,N,4,7-tetramethyl-5-oxo-4,5-dihydroimidazo[1,5-a]quinazoline-3-carboxamide]
< 1000 | Cc1cc(C(C)Nc2ccc(Cl)nc2-c2cnn(C)c2)c2c(c1)c(=O)n(C)c1c(C(=O)N(C)C)ncn21 (centres unmarked) [Compound 120, 9-(1-((6-Chloro-2-(1-methyl-1H-pyrazol-4-yl)pyridin-3-yl)amino)ethyl)-N,N,4,7-tetramethyl-5-oxo-4,5-dihydroimidazo[1,5-a]quinazoline-3-carboxamide]
< 1000 | Cc1cc(C(C)Nc2ccc(Cl)nc2-c2cnn(C)c2)c2c(c1)c(=O)n(C)c1c(C(=O)N3CCC3)ncn21 (centres unmarked) [Compound 121, 3-(azetidine-1-carbonyl)-9-(1-((6-chloro-2-(1-methyl-1H-pyrazol-4-yl)pyridin-3-yl)amino)ethyl)-4,7-dimethylimidazo[1,5-a]quinazolin-5(4H)-one]
< 1000 | Cc1cc(C(C)Nc2ccc(Cl)nc2-c2cnn(C)c2)c2c(c1)c(=O)n(C)c1c(C(=O)N3CC(O)C3)ncn21 (centres unmarked) [Compound 122, 9-(1-((6-chloro-2-(1-methyl-1H-pyrazol-4-yl)pyridin-3-yl)amino)ethyl)-3-(3-hydroxyazetidine-1-carbonyl)-4,7-dimethylimidazo[1,5-a]quinazolin-5(4H)-one]
< 1000 | Cc1cc(C(C)Nc2ccc(Cl)nc2-c2ncn(C)n2)c2c(c1)c(=O)n(CC(F)F)c1c(C(=O)N(C)C)ncn21 (centres unmarked) [Compound 123, 9-(1-((6-chloro-2-(1-methyl-1H-1,2,4-triazol-3-yl)pyridin-3-yl)amino)ethyl)-4-(2,2-difluoroethyl)-N,N,7-trimethyl-5-oxo-4,5-dihydroimidazo[1,5-a]quinazoline-3-carboxamide]
< 1000 | Cc1cc(C(C)Nc2ccc(Cl)nc2-c2c[nH]nc2C)c2c(c1)c(=O)n(C)c1c(C(=O)N(C)C)ncn21 (centres unmarked) [Compound 124, 9-(1-((6-Chloro-2-(3-methyl-1H-pyrazol-4-yl)pyridin-3-yl)amino)ethyl)-N,N,4,7-tetramethyl-5-oxo-4,5-dihydroimidazo[1,5-a]quinazoline-3-carboxamide]
< 1000 | Cc1cc(C(C)Nc2ccc(Cl)nc2-c2ccc(C#N)cc2F)c2c(c1)c(=O)n(C)c1c(C(=O)N(C)C)ncn21 (centres unmarked) [Compound 125, 9-(1-((6-chloro-2-(4-cyano-2-fluorophenyl)pyridin-3-yl)amino)ethyl)-N,N,4,7-tetramethyl-5-oxo-4,5-dihydroimidazo[1,5-a]quinazoline-3-carboxamide]
< 1000 | Cc1cc(C(C)Nc2ccc(Cl)nc2-c2ccc(C#N)cc2)c2c(c1)c(=O)n(C)c1c(C(=O)N(C)C)ncn21 (centres unmarked) [Compound 126, 9-(1-((6-chloro-2-(4-cyanophenyl)pyridin-3-yl)amino)ethyl)-N,N,4,7-tetramethyl-5-oxo-4,5-dihydroimidazo[1,5-a]quinazoline-3-carboxamide]
< 1000 | Cc1cc(C(C)Nc2ccc(Cl)nc2N2CCOCC2)c2c(c1)c(=O)n(C)c1c(C(=O)N(C)C)ncn21 (centres unmarked) [Compound 127, 9-(1-((6-chloro-2-morpholinopyridin-3-yl)amino)ethyl)-N,N,4,7-tetramethyl-5-oxo-4,5-dihydroimidazo[1,5-a]quinazoline-3-carboxamide]
< 1000 | Cc1cc(C(C)Nc2ccc(F)cc2-c2cnn(C)c2)c2c(c1)c(=O)n(C)c1c(C(=O)N(C)C)ncn21 (centres unmarked) [Compound 128, 9-(1-((4-fluoro-2-(1-methyl-1H-pyrazol-4-yl)phenyl)amino)ethyl)-N,N,4,7-tetramethyl-5-oxo-4,5-dihydroimidazo[1,5-a]quinazoline-3-carboxamide]
< 1000 | Cc1cc(C(C)Nc2ccc(Cl)nc2-c2cnn(C)c2C)c2c(c1)c(=O)n(C)c1c(C(=O)N(C)C)ncn21 (centres unmarked) [Compound 129, 9-(1-((6-chloro-2-(1,5-dimethyl-1H-pyrazol-4-yl)pyridin-3-yl)amino)ethyl)-N,N,4,7-tetramethyl-5-oxo-4,5-dihydroimidazo[1,5-a]quinazoline-3-carboxamide]
< 1000 | Cc1cc(C(C)Nc2ccc(Cl)nc2-c2cn(C)nc2C)c2c(c1)c(=O)n(C)c1c(C(=O)N(C)C)ncn21 (centres unmarked) [Compound 130, 9-(1-((6-chloro-2-(1,3-dimethyl-1H-pyrazol-4-yl)pyridin-3-yl)amino)ethyl)-N,N,4,7-tetramethyl-5-oxo-4,5-dihydroimidazo[1,5-a]quinazoline-3-carboxamide]
< 1000 | Cc1cc(C(C)Nc2ccc(Cl)nc2-c2ncn(C)n2)c2c(c1)c(=O)n(C)c1c(C3CCN(C)CC3)ncn21 (centres unmarked) [Compound 131, 9-(1-((6-Chloro-2-(1-methyl-1H-1,2,4-triazol-3-yl)pyridin-3-yl)amino)ethyl)-4,7-dimethyl-3-(1-methylpiperidin-4-yl) imidazo[1,5-a]quinazolin-5(4H)-one]
< 1000 | CC(=O)N1CCC(c2ncn3c4c(C(C)Nc5ccc(Cl)nc5-c5ncn(C)n5)cc(C)cc4c(=O)n(C)c23)CC1 (centres unmarked) [Compound 132, 3-(1-Acetylpiperidin-4-yl)-9-(1-((6-chloro-2-(1-methyl-1H-1,2,4-triazol-3-yl)pyridin-3-yl)amino)ethyl)-4,7-dimethylimidazo[1,5-a]quinazolin-5(4H)-one]
< 1000 | CCOC(=O)N1CCC(c2ncn3c4c(C(C)Nc5ccc(Cl)nc5-c5ncn(C)n5)cc(C)cc4c(=O)n(C)c23)CC1 (centres unmarked) [Compound 133, ethyl 4-(9-(1-((6-chloro-2-(1-methyl-1H-1,2,4-triazol-3-yl)pyridin-3-yl)amino)ethyl)-4,7-dimethyl-5-oxo-4,5-dihydroimidazo[1,5-a]quinazolin-3-yl)piperidine-1-carboxylate]
